# Test results taken from publication PMC8398451, “Molecular Engineering of Curcumin, an Active Constituent of Curcuma longa L. (Turmeric) of the Family Zingiberaceae with Improved Antiproliferative Activity” (Plants, 2021).
# Legend:
# MDA-MB-468 = assay: NCI antiproliferative SRB assay, Breast Cancer panel; type: cell-based, Human; conditions: for %GI / GP (growth percent): one dose 10 µM
# Description: The antiproliferative activity of tested compounds was done against five dozen (60) cancer cell lines derived from nine different panels. All of the compounds were evaluated for antiproliferative activity in a single dose at 10 µM. Growth percent (GP) and percent growth inhibition (% GI) were used to calculate antiproliferative activity. […] The antiproliferative results of five-dose assay were calculated as three dose related parameters like, 50% growth inhibition (GI50), 50% lethal concentration (LC50), and total growth inhibition TGI [43, 44, 45, 46, 47].
# Human tumor cell lines were grown in RPMI 1640 medium containing 5% fetal bovine serum and 2 mM L-glutamine. For a typical screening experiment, cells were inoculated into 96-well microtiter plates in 100 µL at plating densities ranging from 5000 to 40,000 cells/well, depending on the doubling time of individual cell lines. Two plates of each cell line were fixed in situ with trichloroacetic acid (TCA) after 24 h to represent a cell population measurement for each cell line at the time of drug addition (Ti). The experimental drugs were frozen after being solubilized in dimethyl sulfoxide at 400-fold the desired final maximum test concentration. An aliquot of frozen concentrate was thawed and diluted to twice the desired final maximum test concentration with medium containing 50 µg/mL gentamicin at the time of drug addition. Additional four, 10-fold, or ½ log serial dilutions serial dilutions were performed to provide a total of five drug concentrations plus the control. Aliquots of 100 µL of these different drug dilutions were added to the appropriate microtiter wells already containing 100 µL of medium, resulting in the required final drug concentrations. Following drug addition, the plates are incubated for an additional 48 h at 37 °C, 5% CO2, 95% air, and 100% relative humidity. For adherent cells, the assay is terminated by the addition of cold TCA. Cells are fixed in situ by the gentle addition of 50 µL of cold 50% (w/v) TCA (final concentration, 10% TCA) and incubated for 60 min at 4 °C. The supernatant is discarded, and the plates are washed five times with tap water and air dried. Sulforhodamine B (SRB) solution (100 µL) at 0.4% (w/v) in 1% acetic acid was added to each well, and plates were incubated for 10 min at room temperature. After staining, unbound dye was removed by washing five times with 1% acetic acid and the plates were air dried. Bound stain was subsequently solubilized with 10 mM trizma base, and the absorbance was read on an automated plate reader at a wavelength of 515 nm. For suspension cells, the methodology was the same except that the assay was terminated by fixing settled cells at the bottom of the wells by gently adding 50 µL of 80% TCA (final concentration, 16% TCA). […]
# Antiproliferative activity
# The anticancer screening was carried ou t as per the NCI US protocol. Using the seven absorbance measurements (time zero, (Ti), control growth, (C), and test growth in the presence of drug at the five concentration levels (Tf)), the percentage growth was calculated at each of the drug concentrations level as [( Tf−Ti × 100 for concentrations for which Tf ≥ Ti, and Tf−Ti × 100 for […]
# concentrations for which Tf < Ti.
# Three-dose response parameters (GI50, TGI, and LC50) were calculated for each of the experimental agents. Growth inhibition of 50% (GI50) was calculated from 100 × Tf−Ti = 50, , which was […]
# the drug concentration resulting in a 50% reduction in the net protein increase (as measured by sulforhodamine B, SRB staining) in control cells during the drug incubation. The total growth inhibition (TGI) was calculated from Tf = Ti, which was the drug concentration resulting in total growth inhibition and signified the cytostatic effect. The LC50 was calculated from 100 × Tf−Ti = −50, , indicating a net loss […]
# of cells following treatment which indicated the concentration of drug resulting in a 50% reduction in the […]
# HS 578T = assay: as above; type: cell-based, Human; conditions: for %GI / GP (growth percent): one dose 10 µM
# HT29 = assay: NCI antiproliferative SRB assay, Colon Cancer panel; type: cell-based, Human; conditions: for %GI / GP (growth percent): one dose 10 µM
# SF-295 = assay: NCI antiproliferative SRB assay, CNS Cancer panel; type: cell-based, Human; conditions: for %GI / GP (growth percent): one dose 10 µM
# CAKI-1 = assay: NCI antiproliferative SRB assay, Renal Cancer panel; type: cell-based, Human; conditions: for %GI / GP (growth percent): one dose 10 µM
# U251 = assay: NCI antiproliferative SRB assay, CNS Cancer panel; type: cell-based; conditions: U251; for %GI / GP (growth percent): one dose 10 µM
# K-562 = assay: NCI antiproliferative SRB assay, Leukemia panel; type: cell-based, Human; conditions: for %GI / GP (growth percent): one dose 10 µM
# [1] = test system: Non-Small Cell Lung Cancer cell line panel; assay: NCI antiproliferative assay, panel summary; type: cell-based, Human; conditions: for Mean % GI: 10 µM
# IGROV1 = assay: NCI antiproliferative SRB assay, Ovarian Cancer panel; type: cell-based, Human; conditions: for %GI / GP (growth percent): one dose 10 µM
# HOP-62 = assay: NCI antiproliferative SRB assay, Non-Small Cell Lung Cancer panel; type: cell-based, Human; conditions: for %GI / GP (growth percent): one dose 10 µM
# PC-3 = assay: NCI antiproliferative SRB assay, Prostate Cancer panel; type: cell-based, Human; conditions: for %GI / GP (growth percent): one dose 10 µM
# 786–0 = assay: NCI antiproliferative SRB assay, Renal Cancer panel; type: cell-based, Human; conditions: for %GI / GP (growth percent): one dose 10 µM
# MDA-MB-231 = assay: NCI antiproliferative SRB assay, Breast Cancer panel; type: cell-based; conditions: for %GI / GP (growth percent): one dose 10 µM
# DU-145 = assay: NCI antiproliferative SRB assay, Prostate Cancer panel; type: cell-based, Human; conditions: for %GI / GP (growth percent): one dose 10 µM
# SK-MEL-5 = assay: NCI antiproliferative SRB assay, Melanoma panel; type: cell-based, Human; conditions: for %GI / GP (growth percent): one dose 10 µM
# [2] = Homo sapiens, 5-dose 0.01-100 µM
# [3] = Homo sapiens, 5-dose 0.01-100 µM, read-out: LC50 (the source's name)
compound,measurement,setting,value
COc1cc(/C=C/c2cc(/C=C/c3ccc(O)c(OC)c3)n(C(=O)Nc3ccc(C(F)(F)F)cc3)n2)ccc1O [3c],LC50 (50% lethal concentration),"MDA-MB-468; Homo sapiens, MDA-MB-468, read-out: LC50",> 100 µM
same,GI50,"MDA-MB-468; Homo sapiens, MDA-MB-468, 5-dose 0.01-100 µM",2300 nM
same,TGI,"MDA-MB-468; MDA-MB-468, 5-dose 0.01-100 µM",6.25 µM
same,%GI,MDA-MB-468; MDA-MB-468,56.21%
same,GP (growth percent),MDA-MB-468; MDA-MB-468,43.79
same,TGI,HS 578T; 5-dose 0.01-100 µM,60.6 µM
same,GI50,HS 578T; [2],5.1 µM
same,CC50,HS 578T; [3],> 100 µM
same,%GI,HS 578T,48.11%
same,GP (growth percent),HS 578T,51.89
same,TGI,HT29; 5-dose 0.01-100 µM,4.13 µM
same,GI50,"HT29; Homo sapiens, HT-29, 5-dose 0.01-100 µM",2020 nM
same,CC50,"HT29; Homo sapiens, HT-29, 5-dose 0.01-100 µM, read-out: LC50 (the source's name)",8.44 µM
same,%GI,HT29,96.50%
same,GP (growth percent),HT29,3.50
same,TGI,SF-295; 5-dose 0.01-100 µM,9.85 µM
same,GI50,SF-295; [2],2890 nM
same,CC50,SF-295; [3],76.5 µM
same,%GI,SF-295,16.58%
same,GP (growth percent),SF-295,83.42
same,TGI,CAKI-1; 5-dose 0.01-100 µM,12.7 µM
same,GI50,CAKI-1; [2],3.02 µM
same,CC50,CAKI-1; [3],44.1 µM
same,%GI,CAKI-1,45.01%
same,GP (growth percent),CAKI-1,54.99
same,GI50,"U251; Homo sapiens, U-251, 5-dose 0.01-100 µM, read-out: GI50",2490 nM
same,CC50,"U251; Homo sapiens, U-251, 5-dose 0.01-100 µM, read-out: LC50 (the source's name)",> 100 µM
same,TGI,U251; 5-dose 0.01-100 µM,6.86 µM
same,%GI,U251,90.29%
same,GP (growth percent),U251,9.71
same,TGI,K-562; 5-dose 0.01-100 µM,>100 µM
same,GI50,"K-562; Homo sapiens, K562, 5-dose 0.01-100 µM",2530 nM
same,CC50,"K-562; Homo sapiens, K562, 5-dose 0.01-100 µM, read-out: LC50 (the source's name)",> 100 µM
same,%GI,K-562,90.55%
same,GP (growth percent),K-562,9.45
same,Mean % GI,[1],48.83%
same,Selectivity Ratio (MID a:MID b),[1]; 5-dose assay,0.82
same,GI50,"[1]; Homo sapiens, 5-dose assay, read-out: Sub Panel MID b (mean GI50 of panel)",3.44 µM
same,TGI,IGROV1; 5-dose 0.01-100 µM,11.6 µM
same,GI50,"IGROV1; Homo sapiens, IGROV-1, 5-dose 0.01-100 µM",2770 nM
same,CC50,"IGROV1; Homo sapiens, IGROV-1, 5-dose 0.01-100 µM, read-out: LC50 (the source's name)",> 100 µM
same,%GI,IGROV1,57.18%
same,GP (growth percent),IGROV1,42.82
same,TGI,HOP-62; 5-dose 0.01-100 µM,16.2 µM
same,GI50,HOP-62; [2],3.6 µM
same,CC50,HOP-62; [3],> 100 µM
same,%GI,HOP-62,37.13%
same,GP (growth percent),HOP-62,62.87
same,TGI,PC-3; 5-dose 0.01-100 µM,13.5 µM
same,GI50,PC-3; [2],3.21 µM
same,CC50,PC-3; [3],> 100 µM
same,%GI,PC-3,61.97%
same,GP (growth percent),PC-3,38.03
same,TGI,786–0; 5-dose 0.01-100 µM,7.52 µM
same,GI50,786–0; [2],2420 nM
same,CC50,786–0; [3],> 100 µM
same,%GI,786–0,79.93%
same,GP (growth percent),786–0,20.07
same,TGI,MDA-MB-231; 5-dose 0.01-100 µM,9.62 µM
same,GI50,MDA-MB-231; Homo sapiens,3.06 µM
same,CC50,MDA-MB-231; [3],> 100 µM
same,%GI,MDA-MB-231,45.21%
same,GP (growth percent),MDA-MB-231,54.79
same,TGI,DU-145; 5-dose 0.01-100 µM,13.0 µM
same,GI50,DU-145; [2],3.67 µM
same,CC50,DU-145; [3],45.3 µM
same,%GI,DU-145,52.45%
same,GP (growth percent),DU-145,47.55
same,TGI,SK-MEL-5; 5-dose 0.01-100 µM,6.89 µM
same,GI50,SK-MEL-5; [2],2270 nM
same,CC50,SK-MEL-5; [3],28 µM
same,%GI,SK-MEL-5,64.60%
same,GP (growth percent),SK-MEL-5,35.40
COc1ccc(/C=C/c2cc(/C=C/c3ccc(OC)c(O)c3)n(-c3cccc(Cl)c3)c(=S)n2)cc1O [3a],%GI,MDA-MB-468; MDA-MB-468,16.19%
same,GP (growth percent),MDA-MB-468; MDA-MB-468,83.81
same,%GI,HS 578T,15.67%
same,GP (growth percent),HS 578T,84.33
same,%GI,HT29,53.43%
same,GP (growth percent),HT29,46.57
same,%GI,SF-295,−9.94%
same,GP (growth percent),SF-295,109.94
same,%GI,CAKI-1,20.96%
same,GP (growth percent),CAKI-1,79.04
same,%GI,U251,40.59%
same,GP (growth percent),U251,59.41
same,%GI,K-562,40.77%
same,GP (growth percent),K-562,59.23
same,Mean % GI,[1],17.22%
same,%GI,IGROV1,4.74%
same,GP (growth percent),IGROV1,95.26
same,%GI,HOP-62,4.94%
same,GP (growth percent),HOP-62,95.06
same,%GI,PC-3,10.79%
same,GP (growth percent),PC-3,89.21
same,%GI,786–0,5.38%
same,GP (growth percent),786–0,94.62
same,%GI,MDA-MB-231,31.75%
same,GP (growth percent),MDA-MB-231,68.25
same,%GI,DU-145,19.16%
same,GP (growth percent),DU-145,80.84
same,%GI,SK-MEL-5,21.01%
same,GP (growth percent),SK-MEL-5,78.99
